Reference: US12616753B2, “HSP70 inhibitors and methods of using same” (THE WISTAR INSTITUTE, priority 2020, dated 2026)

What was measured:
MC38 cells [1] = test: Matrigel invasion assay; assay type: cell-based, mouse; details: low doses, 24 hours
Description: FIG. 24A: MC38 cells were subjected to invasion assays using BioCoat Matrigel transwells in the presence of the indicated concentrations of AP-4-139B. 24 hours later, cells were fixed and stained with Crystal Violet. Shown are representative images taken from 8 random fields of view per well. Scale bar=100 μm. FIG. 24B: Quantification of FIG. 24A *** p<0.001. FIG. 24C: Schematic representation of the metastasis assay. 4×10^5 MC38 cells were injected into the tail vein of 8-10 week old male C57Bl/6 mice. Mice were treated with i.p. injection of 10 mg/kg AP-4-139B every 48 hours. After 3 weeks, the lungs of mice were formalin fixed and H&E stained, and assessed for the presence of metastatic nodules. FIG. 24D: Representative images of lung metastases (black arrows) from C57Bl/6 mice injected with MC38 cells in the tail vein, followed by treatment with vehicle or AP-4-139B. Scale bar=250 μm. FIG. 24E: Quantification of FIG. 24D. n=5 mice per group. * p<0.05.
Matrigel invasion assays were carried out using 24-well Corning® BioCoat™ Matrigel Invasion Chambers with an 8.0 μm PET membrane (#354480). Transwells were first rehydrated with serum free DMEM for 2 hours at 37° C. […] Number of invaded cells per field (n=8 random fields of view per transwell) were quantified with ImageJSoftware (NIH), normalized to live cells, and expressed as mean±SEM.

MC38 cells [2] = test: Membrane associated calreticulin analysis by flow cytometry; assay type: cell-based, mouse; details: 24 hours
Description: FIG. 6D: MC38 cells were treated with 5 μM AP-4-139B for 24 hours and subjected to flow cytometry, using Alexa488-tagged calreticulin antibody. *** p<0.001, n=4 biological replicates performed in duplicate. FIG. 6E: MC38 cells were treated with increasing concentrations of AP-4-139B, G-TPP, 17-AAG or Metformin for 3 hours and then assayed for extracellular ATP release. Three independent cultures were assayed for each treatment, and DMSO-treated cells were used as internal controls. Error bars represent standard deviation (SD).
Flow cytometry was used to detect calreticulin localization after exposure to Doxorubicin (positive control) or AP-4-139B. MC38 cells were plated at a density of 3×10^5 cells per well in 6-well plates. The following day, cells were treated with 1 μM of doxorubicin, 15 μM of AP-4-139B (MC38), or 5 μM of AP-4-139B (CT26). After 24 hours, cells were collected and stained with anti-CRT antibody (ab196158) (Abcam) diluted in a solution of 1% FBS in PBS for 30 minutes on ice in the dark. Cells were then washed with PBS and stained with DAPI (1 μg/mL) for 5 minutes prior to analysis. Samples were analyzed using a FACSCelesta (Becton Dickinson) flow cytometer. […] Fluorescent intensity of DAPI negative cells was measured and at least 10,000 events in the analysis gate were obtained.

[3] = tested on: 1205LU melanoma xenografts; test: 1205Lu melanoma xenograft in NSG mice; assay type: in vivo, mouse; details: i.p. twice per week
Description: 1205LU melanoma xenografts in NSG mice were established. When tumors reached 100 mm^3 in volume, mice were treated twice per week with the i.p. doses of AP-4-139B indicated.
AP-4-139B was tested as a single agent in a 1205Lu melanoma xenograph in mice. 1205LU melanoma xenografts in NSG mice were established. When tumors reached 100 mm^3 in volume, mice were treated twice per week with the i.p. doses of AP-4-139B indicated.

c1ccc(-c2cn3nc(CCCCCC[P+](c4ccccc4)(c4ccccc4)c4ccccc4)sc3n2)cc1 [AP-4-139B, Triphenyl(6-(6-phenylimidazo[2,1-b][1,3,4]thiadiazol-2-yl)hexyl)phosphonium bromide]
tumor cell migration and invasion (MC38 cells [1]): sufficient to inhibit tumor cell migration and invasion
calreticulin mobilization to the plasma membrane (MC38 cells [2]): calreticulin mobilization to the plasma membrane
tumor growth, 1205Lu xenograft [3]: inhibit tumor growth
tumor weight, 1205Lu xenograft [3]: reduce tumor weight
